The values below come from patent US10780090B2, “Heteroaryl compounds useful as inhibitors of SUMO activating enzyme” (Millennium Pharmaceuticals, Inc., priority 2014, dated 2020).

Each structure is given as a SMILES string.

The target in the experiment is recombinant human SAE enzyme (Homo sapiens (Human), UniProt Q9UBT2). Kind of experiment: SAE HTRF enzyme assay. Type of experiment: biochemical. Conditions: for inhibition at 0.111 µM: Concentration 0.111 μM, read-out: Percent Inhibition; for IC50: class symbols A/B/C. The method in brief:
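Sumoylation of Ubc9-GST by SAE was followed at low ATP (0.5 μM), pH 7.5, 24° C. for 105 min. Product was detected by HTRF with antibody pairs against Flag and GST tags.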
(In TR-FRET formats the signal depends on donor and acceptor labels being close together.)

Sequence of recombinant human SAE enzyme (Q9UBT2 whole entry): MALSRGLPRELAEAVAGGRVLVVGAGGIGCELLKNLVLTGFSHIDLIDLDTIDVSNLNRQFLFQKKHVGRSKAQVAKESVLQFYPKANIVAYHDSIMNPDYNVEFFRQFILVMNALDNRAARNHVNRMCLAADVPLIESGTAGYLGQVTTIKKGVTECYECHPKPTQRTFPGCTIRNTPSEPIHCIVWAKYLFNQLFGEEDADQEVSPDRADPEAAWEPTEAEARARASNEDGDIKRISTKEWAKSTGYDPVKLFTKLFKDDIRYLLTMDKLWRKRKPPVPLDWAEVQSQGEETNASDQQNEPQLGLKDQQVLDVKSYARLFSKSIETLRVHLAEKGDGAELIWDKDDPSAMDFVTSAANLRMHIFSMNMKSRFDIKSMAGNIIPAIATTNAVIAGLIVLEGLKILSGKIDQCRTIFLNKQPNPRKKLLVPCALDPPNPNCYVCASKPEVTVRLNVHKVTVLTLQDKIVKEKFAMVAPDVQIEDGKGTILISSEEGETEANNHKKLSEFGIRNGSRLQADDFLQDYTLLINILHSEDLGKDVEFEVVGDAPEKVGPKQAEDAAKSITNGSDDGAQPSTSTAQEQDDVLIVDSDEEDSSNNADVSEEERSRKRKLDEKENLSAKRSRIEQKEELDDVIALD
Sequence of recombinant human SAE enzyme (Q9UBE0 whole entry partner): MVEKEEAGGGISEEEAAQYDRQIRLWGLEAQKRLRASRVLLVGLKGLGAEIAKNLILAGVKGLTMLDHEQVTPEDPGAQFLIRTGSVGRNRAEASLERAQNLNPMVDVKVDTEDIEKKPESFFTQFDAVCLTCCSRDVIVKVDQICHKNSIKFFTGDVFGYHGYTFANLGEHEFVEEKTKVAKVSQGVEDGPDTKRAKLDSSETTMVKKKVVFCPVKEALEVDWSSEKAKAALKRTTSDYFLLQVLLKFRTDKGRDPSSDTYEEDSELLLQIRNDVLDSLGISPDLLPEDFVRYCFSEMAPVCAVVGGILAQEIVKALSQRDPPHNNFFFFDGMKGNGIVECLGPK

With `Cc1oc(C(=O)c2cncnc2N[C@@H]2C[C@H](COS(N)(=O)=O)[C@@H](O)C2)cc1Cc1cccc(Cl)c1` [I-33, [(1R,2S,4R)-4-({5-[4-(3-chlorobenzyl)-5-methyl-2-furoyl]pyrimidin-4-yl}amino)-2-hydroxycyclopentyl]methyl sulfamate], the inhibition at 0.111 µM was 100% and the IC50 was < 10 nM.
For the molecule `Cc1oc(C(=O)c2cncnc2N[C@@H]2C[C@H](COS(N)(=O)=O)[C@@H](O)C2)cc1Cc1cccc(Br)c1` [I-34, [(1R,2S,4R)-4-({5-[4-(3-bromobenzyl)-5-methyl-2-furoyl]pyrimidin-4-yl}amino)-2-hydroxycyclopentyl]methyl sulfamate], the inhibition at 0.111 µM worked out at 99% and the IC50 is < 10 nM.
The like results for `NS(=O)(=O)OC[C@H]1C[C@@H](Nc2ncncc2C(=O)c2cc(Cc3cccc(Cl)c3)c(CO)s2)C[C@@H]1O` [I-35, {(1R,2S,4R)-4-[(5-{[4-(3-chlorobenzyl)-5-(hydroxymethyl)-2-thienyl]carbonyl}pyrimidin-4-yl)amino]-2-hydroxycyclopentyl}methyl sulfamate] were, in that order, 98% and < 10 nM.
As for `Cc1sc(C(=O)c2cncnc2N[C@@H]2C[C@H](COS(N)(=O)=O)[C@@H](O)C2)cc1Cn1cc(I)cn1` [I-37, [(1R,2S,4R)-2-hydroxy-4-{[5-({4-[(4-iodo-1H-pyrazol-1-yl)methyl]-5-methyl-2-thienyl}carbonyl)pyrimidin-4-yl]amino}cyclopentyl]methyl sulfamate], the inhibition at 0.111 µM worked out at 98%.
On to `Cc1sc(C(=O)c2cncnc2N[C@@H]2C[C@H](COS(N)(=O)=O)[C@@H](O)C2)cc1Cn1cc(Br)cn1` [I-39, [(1R,2S,4R)-4-{[5-({4-[(4-bromo-1H-pyrazol-1-yl)methyl]-5-methyl-2-thienyl}carbonyl)pyrimidin-4-yl]amino}-2-hydroxycyclopentyl]methyl sulfamate], for which the inhibition at 0.111 µM was found to be 98%.
Turning to `NS(=O)(=O)OC[C@H]1C[C@@H](Nc2ncncc2C(=O)c2cc(Cc3cccc(Cl)c3)cs2)C[C@@H]1O` [I-43, {(1R,2S,4R)-4-[(5-{[4-(3-chlorobenzyl)-2-thienyl]carbonyl}pyrimidin-4-yl)amino]-2-hydroxycyclopentyl}methyl sulfamate], the inhibition at 0.111 µM came to 99%.
For `COCc1sc(C(=O)c2cncnc2N[C@@H]2C[C@H](COS(N)(=O)=O)[C@@H](O)C2)cc1Cc1cccc(Cl)c1` [I-44, {(1R,2S,4R)-4-[(5-{[4-(3-chlorobenzyl)-5-(methoxymethyl)-2-thienyl]carbonyl}pyrimidin-4-yl)amino]-2-hydroxycyclopentyl}methyl sulfamate], the inhibition at 0.111 µM was 100% and the IC50 is < 10 nM.
As to `Cc1cccc(Cc2cc(C(=O)c3cncnc3N[C@@H]3C[C@H](COS(N)(=O)=O)[C@@H](O)C3)sc2C)c1` [I-45, {(1R,2S,4R)-2-hydroxy-4-[(5-{[5-methyl-4-(3-methylbenzyl)-2-thienyl]carbonyl}pyrimidin-4-yl)amino]cyclopentyl}methyl sulfamate], the inhibition at 0.111 µM was found to be 99% and the half-maximal inhibitory concentration (IC50) is < 10 nM.
For `NS(=O)(=O)OC[C@H]1C[C@@H](Nc2ncncc2C(=O)c2cc(Cc3cccc(Br)n3)c(Cl)s2)C[C@@H]1O` [I-46, [(1R,2S,4R)-4-{[5-({4-[(6-bromopyridin-2-yl)methyl]-5-chloro-2-thienyl}carbonyl)pyrimidin-4-yl]amino}-2-hydroxycyclopentyl]methyl sulfamate], the inhibition at 0.111 µM amounted to 98%.
Turning to `Cc1sc(C(=O)c2cncnc2N[C@@H]2C[C@H](COS(N)(=O)=O)[C@@H](O)C2)cc1Cc1cccc(Cl)c1` [I-51, {(1R,2S,4R)-4-[(5-{[4-(3-chlorobenzyl)-5-methyl-2-thienyl]carbonyl}pyrimidin-4-yl)amino]-2-hydroxycyclopentyl}methyl sulfamate], the inhibition at 0.111 µM amounted to 100% and the 50% inhibitory concentration (IC50) is < 10 nM.
As to `Cc1sc(C(=O)c2cncnc2N[C@@H]2C[C@H](COS(N)(=O)=O)[C@@H](O)C2)cc1Cc1cccc(Br)c1` [I-52, {(1R,2S,4R)-4-[(5-{[4-(3-bromobenzyl)-5-methyl-2-thienyl]carbonyl}pyrimidin-4-yl)amino]-2-hydroxycyclopentyl}methyl sulfamate], the inhibition at 0.111 µM is 99% and the IC50 was < 10 nM.
Turning to `NS(=O)(=O)OC[C@H]1C[C@@H](Nc2ncncc2C(=O)c2cc(Cc3cccc(Br)n3)cs2)C[C@@H]1O` [I-53, [(1R,2S,4R)-4-{[5-({4-[(6-bromopyridin-2-yl)methyl]-2-thienyl}carbonyl)pyrimidin-4-yl]amino}-2-hydroxycyclopentyl]methyl sulfamate], the inhibition at 0.111 µM was determined as 99%.
For `Cc1sc(C(=O)c2cncnc2N[C@@H]2C[C@H](COS(N)(=O)=O)[C@@H](O)C2)cc1Cn1cc(Cl)cn1` [I-55, [(1R,2S,4R)-4-{[5-({4-[(4-chloro-1H-pyrazol-1-yl)methyl]-5-methyl-2-thienyl}carbonyl)pyrimidin-4-yl]amino}-2-hydroxycyclopentyl]methyl sulfamate], the inhibition at 0.111 µM was 97%.
Same read-out and setting: the result for `Cc1cccc(Cc2coc(C(=O)c3cncnc3N[C@@H]3C[C@H](COS(N)(=O)=O)[C@@H](O)C3)c2)c1` [I-57, [(1R,2S,4R)-2-hydroxy-4-({5-[4-(3-methylbenzyl)-2-furoyl]pyrimidin-4-yl}amino)cyclopentyl]methyl sulfamate] reads 98%; that for `NS(=O)(=O)OC[C@H]1C[C@@H](Nc2ncncc2C(=O)c2cc(Cc3cccc(Br)c3)cs2)C[C@@H]1O` [I-59, {(1R,2S,4R)-4-[(5-{[4-(3-Bromobenzyl)-2-thienyl]carbonyl}pyrimidin-4-yl)amino]-2-hydroxycyclopentyl}methyl sulfamate], 99%.
On the same count and under the same terms, then `Cc1cccc(Cc2csc(C(=O)c3cncnc3N[C@@H]3C[C@H](COS(N)(=O)=O)[C@@H](O)C3)c2)c1` [I-60, {(1R,2S,4R)-2-hydroxy-4-[(5-{[4-(3-methylbenzyl)-2-thienyl]carbonyl}pyrimidin-4-yl)amino]cyclopentyl}methyl sulfamate], with 99%.
Turning to `NS(=O)(=O)OC[C@H]1C[C@@H](Nc2ncncc2C(=O)c2cc(Cc3ccc(F)c(Cl)c3)cs2)C[C@@H]1O` [I-61, {(1R,2S,4R)-4-[(5-{[4-(3-chloro-4-fluorobenzyl)-2-thienyl]carbonyl}pyrimidin-4-yl)amino]-2-hydroxycyclopentyl}methyl sulfamate], the inhibition at 0.111 µM was 98% and the IC50 was < 10 nM.
For the molecule `NS(=O)(=O)OC[C@H]1C[C@@H](Nc2ncncc2C(=O)c2cc(Cc3cccc(I)c3)cs2)C[C@@H]1O` [I-62, {(1R,2S,4R)-2-hydroxy-4-[(5-{[4-(3-iodobenzyl)-2-thienyl]carbonyl}pyrimidin-4-yl)amino]cyclopentyl}methyl sulfamate], the inhibition at 0.111 µM was determined as 98%.
For the molecule `Cc1oc(C(=O)c2cncnc2N[C@@H]2C[C@H](COS(N)(=O)=O)[C@@H](O)[C@@H]2F)cc1Cc1cccc(Br)c1` [I-64, [(1R,2R,3R,4R)-4-({5-[4-(3-bromobenzyl)-5-methyl-2-furoyl]pyrimidin-4-yl}amino)-3-fluoro-2-hydroxycyclopentyl]methyl sulfamate], the inhibition at 0.111 µM turned out to be 99% and the IC50 is < 10 nM.

A word on the inhibition: it is the percentage by which the read-out fell short of the control. By IC50 is commonly meant the concentration needed to halve the response being measured.
